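Dose response: 5 concentrations. Exposure: 48 h. Format: 96-well plates. Endpoint: linear interpolation; highest concentration if not reached. Abbreviation: GI50, concentration required for 50% inhibition of growth. TGI is the concentration that stops growth completely.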
Columns and labels:
Experiment in all cases: inhibition of tumour cell growth, NCI panel, 48 h
UO-31 renal = system: UO-31 renal
U251 CNS = system: U251 CNS
HL-60(TB) leukemia = system: HL-60(TB) leukemia
SR leukemia = system: SR leukemia
NCI-H23 lung = system: NCI-H23 lung
A498 renal = system: A498 renal
OVCAR-5 ovarian = system: OVCAR-5 ovarian
COLO 205 colon = system: COLO 205 colon
A549 NSCLC = system: A549 NSCLC
NCI-H460 lung = system: NCI-H460 lung
OVCAR-3 ovarian = system: OVCAR-3 ovarian
SNB-75 CNS = system: SNB-75 CNS
BT-549 breast = system: BT-549 breast
LOX IMVI melanoma = system: LOX IMVI melanoma
SK-MEL-5 melanoma = system: SK-MEL-5 melanoma
RXF 393 renal = system: RXF 393 renal
PC-3 prostate = system: PC-3 prostate
DU-145 prostate = system: DU-145 prostate
NCI-H226 lung = system: NCI-H226 lung
T-47D breast = system: T-47D breast
CAKI-1 renal = system: CAKI-1 renal
NCI-H522 lung = system: NCI-H522 lung
OVCAR-8 ovarian = system: OVCAR-8 ovarian
SNB-19 CNS = system: SNB-19 CNS
UACC-257 melanoma = system: UACC-257 melanoma
MALME-3M melanoma = system: MALME-3M melanoma
IGROV1 ovarian = system: IGROV1 ovarian
SK-OV-3 ovarian = system: SK-OV-3 ovarian
SF-268 CNS = system: SF-268 CNS
SK-MEL-28 melanoma = system: SK-MEL-28 melanoma
SF-295 CNS = system: SF-295 CNS
HCT-116 colon = system: HCT-116 colon
K-562 leukemia = system: K-562 leukemia
786-0 renal = system: 786-0 renal
KM12 colon = system: KM12 colon
HT29 colon = system: HT29 colon
MDA-MB-231 breast = system: MDA-MB-231 breast
TK-10 renal = system: TK-10 renal
MCF7 breast = system: MCF7 breast
MOLT-4 leukemia = system: MOLT-4 leukemia
EKVX NSCLC = system: EKVX NSCLC
SN12C renal = system: SN12C renal
HOP-62 NSCLC = system: HOP-62 NSCLC
NCI/ADR-RES ovarian = system: NCI/ADR-RES ovarian
HCC-2998 colon = system: HCC-2998 colon
ACHN renal = system: ACHN renal
OVCAR-4 ovarian = system: OVCAR-4 ovarian
RPMI-8226 leukemia = system: RPMI-8226 leukemia
SK-MEL-2 melanoma = system: SK-MEL-2 melanoma
MDA-MB-435 = system: MDA-MB-435
HOP-92 NSCLC = system: HOP-92 NSCLC
SW-620 colon = system: SW-620 colon
HS 578T breast = system: HS 578T breast
CCRF-CEM leukemia = system: CCRF-CEM leukemia
UACC-62 melanoma = system: UACC-62 melanoma
HCT-15 colon = system: HCT-15 colon
M14 melanoma = system: M14 melanoma
SF-539 CNS = system: SF-539 CNS

Work on `CCN(CC)CCCC(C)Nc1c(-c2ccccc2)cnc2cc(Cl)ccc12` (stereo unspecified) yielded a GI50 (UO-31 renal) of 1.12 µM, a TGI (UO-31 renal) of 8.83 µM and a GI50 (U251 CNS) of 6.84 µM. It also gave a TGI (U251 CNS) of 20.5 µM, a GI50 (HL-60(TB) leukemia) of 5.29 µM and a TGI (HL-60(TB) leukemia) of 23.8 µM. It also gave a GI50 (SR leukemia) of 3.14 µM, a TGI (SR leukemia) of over 24.6 µM and a GI50 (NCI-H23 lung) of 11 µM. It also gave a TGI (NCI-H23 lung) of 28.5 µM, a GI50 (A498 renal) of 2.71 µM and a TGI (A498 renal) of 13.8 µM. The GI50 (OVCAR-5 ovarian) was 10.5 µM, the TGI (OVCAR-5 ovarian) was 27 µM and the GI50 (COLO 205 colon) was 1.6 µM. For the same compound, the TGI (COLO 205 colon) was 3.23 µM, the GI50 (A549 NSCLC) was 8.2 µM and the TGI (A549 NSCLC) was 40.7 µM. It also gave a GI50 (NCI-H460 lung) of 6.99 µM, a TGI (NCI-H460 lung) of 19.8 µM and a GI50 (OVCAR-3 ovarian) of 12.5 µM. For the same compound, the TGI (OVCAR-3 ovarian) was 26.5 µM, the GI50 (SNB-75 CNS) was 13.7 µM and the TGI (SNB-75 CNS) was 45.3 µM. The GI50 (BT-549 breast) was 8.76 µM, the TGI (BT-549 breast) was 22.3 µM and the GI50 (LOX IMVI melanoma) was 2.2 µM. It also gave a TGI (LOX IMVI melanoma) of 5.84 µM, a GI50 (SK-MEL-5 melanoma) of 1.74 µM and a TGI (SK-MEL-5 melanoma) of 3.64 µM. It also gave a GI50 (RXF 393 renal) of 3.36 µM, a TGI (RXF 393 renal) of 11.1 µM and a GI50 (PC-3 prostate) of 14.9 µM. For the same compound, the TGI (PC-3 prostate) was 60.4 µM, the GI50 (DU-145 prostate) was 13 µM and the TGI (DU-145 prostate) was 31.3 µM. The GI50 (NCI-H226 lung) was 15.7 µM, the TGI (NCI-H226 lung) was 31.6 µM and the GI50 (T-47D breast) was 4.44 µM. It also gave a TGI (T-47D breast) of 16.2 µM, a GI50 (CAKI-1 renal) of 2.12 µM and a TGI (CAKI-1 renal) of 10.9 µM. The GI50 (NCI-H522 lung) was 7.22 µM, the TGI (NCI-H522 lung) was 19.2 µM and the GI50 (OVCAR-8 ovarian) was 11.9 µM. It also gave a TGI (OVCAR-8 ovarian) of 32.3 µM, a GI50 (SNB-19 CNS) of 16.6 µM and a TGI (SNB-19 CNS) of 57.7 µM. It also gave a GI50 (UACC-257 melanoma) of 2.46 µM, a TGI (UACC-257 melanoma) of 6.28 µM and a GI50 (MALME-3M melanoma) of 1.93 µM. The TGI (MALME-3M melanoma) was 4.62 µM, the GI50 (IGROV1 ovarian) was 11.8 µM and the TGI (IGROV1 ovarian) was 31.4 µM. For the same compound, the GI50 (SK-OV-3 ovarian) was 15.3 µM, the TGI (SK-OV-3 ovarian) was 33.5 µM and the GI50 (SF-268 CNS) was 10.3 µM. For the same compound, the TGI (SF-268 CNS) was 27.3 µM, the GI50 (SK-MEL-28 melanoma) was 1.82 µM and the TGI (SK-MEL-28 melanoma) was 3.55 µM. It also gave a GI50 (SF-295 CNS) of 2.78 µM, a TGI (SF-295 CNS) of 9 µM and a GI50 (HCT-116 colon) of 3.72 µM. For the same compound, the TGI (HCT-116 colon) was 15.2 µM, the GI50 (K-562 leukemia) was 3.2 µM and the TGI (K-562 leukemia) was 32 µM. For the same compound, the GI50 (786-0 renal) was 6.38 µM, the TGI (786-0 renal) was 20.6 µM and the GI50 (KM12 colon) was 4.19 µM. For the same compound, the TGI (KM12 colon) was 16 µM, the GI50 (HT29 colon) was 2.74 µM and the TGI (HT29 colon) was 11.5 µM. It also gave a GI50 (MDA-MB-231 breast) of 3.5 µM, a TGI (MDA-MB-231 breast) of 13.2 µM and a GI50 (TK-10 renal) of 6.93 µM. For the same compound, the TGI (TK-10 renal) was 17.5 µM, the GI50 (MCF7 breast) was 4.54 µM and the TGI (MCF7 breast) was 17.7 µM. For the same compound, the GI50 (MOLT-4 leukemia) was 4.38 µM, the TGI (MOLT-4 leukemia) was 31.9 µM and the GI50 (EKVX NSCLC) was 7.58 µM. For the same compound, the TGI (EKVX NSCLC) was 40.7 µM, the GI50 (SN12C renal) was 8.9 µM and the TGI (SN12C renal) was 36.5 µM. The GI50 (HOP-62 NSCLC) was 9.62 µM, the TGI (HOP-62 NSCLC) was 22.9 µM and the GI50 (NCI/ADR-RES ovarian) was 11.6 µM. For the same compound, the TGI (NCI/ADR-RES ovarian) was 28.3 µM, the GI50 (HCC-2998 colon) was 2.34 µM and the TGI (HCC-2998 colon) was 5.62 µM. For the same compound, the GI50 (ACHN renal) was 13 µM, the TGI (ACHN renal) was 36.6 µM and the GI50 (OVCAR-4 ovarian) was 10.3 µM. It also gave a TGI (OVCAR-4 ovarian) of 36.4 µM, a GI50 (RPMI-8226 leukemia) of 3.49 µM and a TGI (RPMI-8226 leukemia) of 17.1 µM. The GI50 (SK-MEL-2 melanoma) was 6.56 µM, the TGI (SK-MEL-2 melanoma) was 13.8 µM and the GI50 (MDA-MB-435) was 2.24 µM. It also gave a TGI (MDA-MB-435) of 5.31 µM, a GI50 (HOP-92 NSCLC) of 4.65 µM and a TGI (HOP-92 NSCLC) of 23.7 µM. The GI50 (SW-620 colon) was 9.04 µM, the TGI (SW-620 colon) was 22.8 µM and the GI50 (HS 578T breast) was 6.82 µM. For the same compound, the TGI (HS 578T breast) was 24.7 µM, the GI50 (CCRF-CEM leukemia) was 14.4 µM and the TGI (CCRF-CEM leukemia) was over 100 µM. For the same compound, the GI50 (UACC-62 melanoma) was 2.37 µM, the TGI (UACC-62 melanoma) was 6.26 µM and the GI50 (HCT-15 colon) was 3.62 µM. The TGI (HCT-15 colon) was 13.6 µM, the GI50 (M14 melanoma) was 1.86 µM and the TGI (M14 melanoma) was 3.44 µM. For the same compound, the GI50 (SF-539 CNS) was 4.36 µM and the TGI (SF-539 CNS) was 16.3 µM.

Reference: PubChem BioAssay (NCI)
